14 compounds from ChEMBL document CHEMBL1201862, “PubChem BioAssay data set” (2004) can be followed below.

What all share (assay): inhibition of tumour cell growth, NCI panel, 48 h
In experiment [1] the test system is SF-295.
Experiment [2] relates to HCT-116.
In experiment [3] the test system is Malme-3M.
For experiment [4], the system named is MDA-N.
The subject of experiment [5] is NCI-H460.
For experiment [6], the system named is SK-MEL-28.
Experiment [7] concerns COLO 205.
The test system of experiment [8] is OVCAR-5.
The test system of experiment [9] is EKVX.
Experiment [10] relates to UACC-257.
Experiment [11] has as its system NCI-H226.
In experiment [12] the test system is OVCAR-4.
The subject of experiment [13] is SNB-19.
Experiment [14] deals with OVCAR-8.
The test system of experiment [15] is HL-60.
Experiment [16] deals with HCC 2998.

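Compound exposure: 48 hours, 5 concentrations, 96-well plates. GI50 is the concentration that inhibits growth by half.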 Activity calls are given as the source filed them. No stated cut-off is given here; in the data, active = GI50 up to about 1.1 µM and inactive = higher.

`NC(CC1=CS(=O)(=O)c2ccc(Cl)cc21)C(=O)O` (stereo unspecified): the GI50 in experiment [1] was 83.6 µM (inactive); in experiment [2], > 100 µM (inactive); in [3] it was 76.7 µM (inactive); in [4], > 100 µM (inactive); in experiment [5], 89.9 µM (inactive); in experiment [6], > 100 µM (inactive). The GI50 in [7] was > 100 µM (inactive); in experiment [8], > 100 µM (inactive); in [9] it was > 100 µM (inactive); in experiment [10], 54.7 µM (inactive); in experiment [11], > 100 µM (inactive); in [12], > 100 µM (inactive). Besides, the GI50 in experiment [13] and in [14] was > 100 µM (inactive) each time.
As to `CCN(CC)C(=O)CCCCCCCCC1CO1` (stereo unspecified), the GI50 in experiment [1] is > 100 µM (inactive); in experiment [2], > 100 µM (inactive); in experiment [3], 81.3 µM (inactive); in experiment [4], > 100 µM (inactive); in experiment [5] it was > 100 µM (inactive); in [15] it was 21.1 µM (inactive). In addition, the GI50 in [6], in experiment [7], in experiment [8], in experiment [9], in [10] and in experiment [11] was > 100 µM (inactive) throughout. Besides, the GI50 in experiment [12], in [13] and in experiment [14] was > 100 µM (inactive) each time.
For `Nc1ccc(C(=O)O)cc1.Nc1nc(N)c2nc[nH]c2n1`, the GI50 in experiment [1] was 25 µM (inactive); in experiment [2], 15.2 µM (inactive); in [3], 69.2 µM (inactive); in [4], 13.9 µM (inactive); in experiment [5], 21.6 µM (inactive); in [15] it was 31.4 µM (inactive). Also, the GI50 in experiment [6] is 33 µM (inactive); in [7], 25.9 µM (inactive); in experiment [8], 17.1 µM (inactive); in experiment [9], 14.5 µM (inactive); in experiment [10], 17.5 µM (inactive); in experiment [11], > 100 µM (inactive). The GI50 in experiment [12] is 26.4 µM (inactive); in experiment [13], 40.7 µM (inactive); in [14] it was 22.1 µM (inactive).
Turning to `COc1ccc(Nc2nc(NNC(=O)Cc3ccccc3)nc(NNC(=O)c3ccncc3)n2)cc1`, the GI50 in [1], in experiment [2], in experiment [3], in experiment [4], in experiment [5] and in [6] was > 10 µM (inactive) each time. Besides, the GI50 in [7] is > 10 µM (inactive); in experiment [8], > 10 µM (inactive); in [9], 0.955 µM (active); in experiment [16] it was > 10 µM (inactive); in experiment [10] it was > 10 µM (inactive); in experiment [12] it was > 10 µM (inactive). For the same compound, the GI50 in experiment [13] and in experiment [14] was > 10 µM (inactive) each time.
Regarding `Cc1ccc(S(=O)(=O)OC2=C/C(=N\c3onc(C)c3C)c3ccccc3C2=O)cc1`, the GI50 in experiment [1] was 32.4 µM (inactive); in [2], 17.6 µM (inactive); in experiment [3], 17.9 µM (inactive); in experiment [4], 25.2 µM (inactive); in [5], 32.8 µM (inactive); in experiment [15], 6.43 µM (inactive). The GI50 in experiment [6] is 44.3 µM (inactive); in experiment [7] it was 86.5 µM (inactive); in experiment [8], 20.3 µM (inactive); in [9], > 100 µM (inactive); in experiment [10] it was 15.2 µM (inactive); in experiment [11] it was 35.4 µM (inactive). The GI50 in experiment [12] was 16.4 µM (inactive); in [13] it was 26.7 µM (inactive); in experiment [14], 18.3 µM (inactive).
As for `O=C(O)[C@@]1(Cc2ccc(O)cc2)C[C@@H]2Cc3ccccc3N2N1`, the GI50 in [1], in experiment [2], in experiment [3], in experiment [4], in experiment [15] and in experiment [6] was > 100 µM (inactive) each time. For the same compound, the GI50 in experiment [7], in experiment [8], in experiment [9], in [10], in experiment [11] and in experiment [12] was > 100 µM (inactive) each time. The GI50 in experiment [13] and in [14] was > 100 µM (inactive) each time.
For the compound `CN1C2CCC1CN(CCOC(c1ccc(F)cc1)c1ccc(F)cc1)C2`, the GI50 in experiment [1] was 19.1 µM (inactive); in experiment [2], 17.8 µM (inactive); in experiment [3], 17.9 µM (inactive); in [4], 36 µM (inactive); in experiment [5], 20.9 µM (inactive); in [15], 12.6 µM (inactive). Further, the GI50 in [6] was 15.5 µM (inactive); in experiment [7] it was 15.3 µM (inactive); in [8], 56.6 µM (inactive); in experiment [9] it was 23.8 µM (inactive); in [10], 19.1 µM (inactive); in experiment [11] it was 32.3 µM (inactive). The figures for the GI50 in experiment [12], in experiment [13] and in experiment [14] were 43.8 µM (inactive), > 100 µM (inactive) and 32.4 µM (inactive), respectively.
Turning to `CCOC(=O)N/N=C(/N)Cc1ccc(Cl)cc1`, the GI50 in experiment [1], in experiment [2], in [4], in experiment [6], in experiment [7] and in [8] was > 100 µM (inactive) each time. Besides, the GI50 in experiment [9], in [16], in [10], in experiment [12], in [13] and in [14] was > 100 µM (inactive) in each case.
Consider `O=C(O)C1C2C=CC(O2)C1C(=O)Nc1ncccn1` (stereo unspecified), for which the GI50 in experiment [1], in experiment [2], in experiment [3], in experiment [4], in [5] and in [15] was > 100 µM (inactive) in each case. Besides, the GI50 in [6], in experiment [7], in [8], in experiment [9], in [10] and in experiment [11] was > 100 µM (inactive) throughout. Besides, the GI50 in [12], in experiment [13] and in experiment [14] was > 100 µM (inactive) throughout.
As to `COc1ccc(N2C(=O)CC(Cl)C2=O)cc1` (stereo unspecified), the GI50 in experiment [2] is 18.2 µM (inactive); in experiment [3], 17.5 µM (inactive); in experiment [5], > 100 µM (inactive); in experiment [6], 16.6 µM (inactive); in experiment [7] it was 16.4 µM (inactive); in [8] it was 18.2 µM (inactive). The GI50 in experiment [9] was > 100 µM (inactive); in experiment [16] it was 20.4 µM (inactive); in [10], 16.1 µM (inactive); in [11] it was 20.5 µM (inactive); in experiment [12] it was 19.1 µM (inactive); in experiment [13], > 100 µM (inactive). Moreover, the GI50 in [14] is 16.6 µM (inactive).
Regarding `O=S1(=O)c2ccccc2Oc2ccc(C(/C=N/O)=N/O)cc21`, the GI50 was 18.2 µM (inactive) in experiment [1]; 43.7 µM (inactive) in [2]; 0.132 µM (active) in experiment [3]; 27.9 µM (inactive) in [5]; 17.3 µM (inactive) in experiment [15]; 56.8 µM (inactive) in experiment [6]. Also, the GI50 is > 100 µM (inactive) in experiment [7]; > 100 µM (inactive) in [8]; 7.71 µM (inactive) in experiment [9]; 57.4 µM (inactive) in experiment [11]; 39.1 µM (inactive) in experiment [12]; 18.4 µM (inactive) in experiment [14].
On to `COc1ccc2c(n1)Sc1nc3ccccc3nc1N2`, for which the GI50 in experiment [1] was 26.7 µM (inactive); in [2], 33.7 µM (inactive); in experiment [3], 29 µM (inactive); in experiment [5], 63.1 µM (inactive); in [6] it was > 100 µM (inactive); in experiment [7], > 100 µM (inactive). Moreover, the GI50 was 56.1 µM (inactive) in experiment [8]; 12.6 µM (inactive) in [9]; > 100 µM (inactive) in experiment [10]; 10.7 µM (inactive) in [11]; 67.3 µM (inactive) in [12]; 30.3 µM (inactive) in experiment [13]. In addition, the GI50 in experiment [14] was 16.2 µM (inactive).
On to `Cc1ccccc1/N=N/c1ccc(/N=N/c2c(O)ccc3ccccc23)c(C)c1` [SCARLET RED], for which the GI50 is 56.8 µM (inactive) in experiment [1]; > 100 µM (inactive) in [2]; > 100 µM (inactive) in experiment [3]; > 100 µM (inactive) in [6]; > 100 µM (inactive) in experiment [7]; > 100 µM (inactive) in [8]. Further, the GI50 in experiment [9] is > 100 µM (inactive); in [10], > 100 µM (inactive); in experiment [11], > 100 µM (inactive); in [12], > 100 µM (inactive); in [13], 81.7 µM (inactive); in experiment [14], > 100 µM (inactive).
For the compound `COc1cc2c(/C=C3/C(=O)Nc4cccc(Cl)c43)c(Cl)[nH]c2cc1C`, the GI50 in experiment [1] is 1.69 µM (inactive); in [2], 1.49 µM (inactive); in experiment [5] it was 1.72 µM (inactive); in [15], 1.82 µM (inactive); in [6] it was 1.21 µM (inactive); in [7], 1.95 µM (inactive). Besides, the GI50 in [8] is 4.02 µM (inactive); in [10], 2.26 µM (inactive); in experiment [11] it was 1.44 µM (inactive); in experiment [12], 0.078 µM (active); in [13], 2.14 µM (inactive); in experiment [14], 2.54 µM (inactive).
